What is called EC50 is the concentration needed to bring the measured effect to its halfway point. Low readings indicate higher potency in that assay, high ones lower potency in that assay.

The test deals with T1, F508delCFTR (Homo sapiens, UniProt P13569, DEL508-508).
T1 construct: expressed in transfected cells; host or cells: CFBE41o- (human lung derived epithelial cell line), doxycycline-inducible
Briefly: Cell Surface Expression-Horse Radish Peroxidase (CSE-HRP) assay. It counts as cell-based. As to conditions: CFBE41o-F508delCFTR-HRP cells; for EC50: F508delCFTR cell surface expression, luminescence, 18-24 hours at 33° C., highest concentration 20 μM; for Maximum % activity: maximum at any tested concentration, normalized to on-plate positive control (3 μM). In short, it runs like this:
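CFBE41o- cells expressing doxycycline-induced (0.5 μg/mL, 72 h at 37 °C) F508delCFTR with HRP in the fourth extracellular loop; compounds 8 points, 3-fold from 20 μM, 18-24 h at 33 °C. Surface HRP measured by luminol luminescence, normalised to DMSO and 3 μM reference corrector; EC50 from variable-slope sigmoidal fit of triplicate plates.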

T1 sequence (P13569 with tags, fused parts or gaps DEL508-508): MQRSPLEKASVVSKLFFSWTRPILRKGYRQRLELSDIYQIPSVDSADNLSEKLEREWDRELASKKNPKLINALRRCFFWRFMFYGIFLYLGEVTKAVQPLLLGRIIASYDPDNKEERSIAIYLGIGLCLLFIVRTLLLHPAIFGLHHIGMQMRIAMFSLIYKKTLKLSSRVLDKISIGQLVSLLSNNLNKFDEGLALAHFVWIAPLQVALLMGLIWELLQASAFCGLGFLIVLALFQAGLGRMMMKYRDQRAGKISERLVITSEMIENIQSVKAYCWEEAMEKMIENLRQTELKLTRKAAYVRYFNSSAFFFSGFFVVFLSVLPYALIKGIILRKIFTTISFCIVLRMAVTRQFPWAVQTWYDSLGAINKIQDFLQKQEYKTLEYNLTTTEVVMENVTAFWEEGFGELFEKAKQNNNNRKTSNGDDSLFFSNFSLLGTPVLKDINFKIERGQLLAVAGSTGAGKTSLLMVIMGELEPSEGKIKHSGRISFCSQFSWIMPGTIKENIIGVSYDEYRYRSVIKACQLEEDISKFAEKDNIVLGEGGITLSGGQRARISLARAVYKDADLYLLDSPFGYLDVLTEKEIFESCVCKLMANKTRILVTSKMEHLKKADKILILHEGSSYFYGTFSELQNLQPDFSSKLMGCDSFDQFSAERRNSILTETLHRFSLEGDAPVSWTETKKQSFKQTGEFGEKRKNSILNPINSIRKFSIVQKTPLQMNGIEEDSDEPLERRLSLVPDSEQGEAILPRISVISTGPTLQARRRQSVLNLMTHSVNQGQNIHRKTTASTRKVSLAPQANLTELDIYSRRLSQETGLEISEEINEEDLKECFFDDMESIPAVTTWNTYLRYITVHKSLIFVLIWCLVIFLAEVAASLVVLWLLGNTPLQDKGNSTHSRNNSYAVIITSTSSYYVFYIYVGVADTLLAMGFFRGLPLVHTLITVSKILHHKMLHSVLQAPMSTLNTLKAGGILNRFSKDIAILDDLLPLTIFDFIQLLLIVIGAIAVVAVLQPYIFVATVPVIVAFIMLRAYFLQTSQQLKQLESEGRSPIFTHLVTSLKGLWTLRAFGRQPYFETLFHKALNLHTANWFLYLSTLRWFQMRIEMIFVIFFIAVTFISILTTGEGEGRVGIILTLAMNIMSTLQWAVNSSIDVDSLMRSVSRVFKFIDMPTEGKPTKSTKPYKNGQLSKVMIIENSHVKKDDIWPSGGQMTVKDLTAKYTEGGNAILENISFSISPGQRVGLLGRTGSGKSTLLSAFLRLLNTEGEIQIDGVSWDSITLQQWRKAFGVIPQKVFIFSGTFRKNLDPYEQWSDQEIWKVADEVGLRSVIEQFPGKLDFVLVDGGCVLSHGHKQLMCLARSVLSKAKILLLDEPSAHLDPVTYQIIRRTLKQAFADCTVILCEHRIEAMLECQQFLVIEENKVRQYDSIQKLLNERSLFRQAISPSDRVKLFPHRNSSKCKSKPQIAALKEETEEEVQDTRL

`COc1ccc2c(c1)O[C@@H](c1ccc(C(=O)O)cc1)C[C@H]2NC(=O)C1(c2ccccc2Cl)CCC1` [Example 96, 4-[(2R,4R)-4-{[1-(2-chlorophenyl)cyclobutane-1-carbonyl]amino}-7-methoxy-3,4-dihydro-2H-1-benzopyran-2-yl]benzoic acid]: the midpoint of the response, the EC50, lay at 3.01 µM and the Maximum % activity amounted to 33.0%.
As for `COc1ccc2c(c1)O[C@@H](c1ccc(C(=O)O)cc1)C[C@H]2NC(=O)C1(c2ccccc2OC)CC1` [Example 103, 4-[(2R,4R)-7-methoxy-4-{[1-(2-methoxyphenyl)cyclopropane-1-carbonyl]amino}-3,4-dihydro-2H-1-benzopyran-2-yl]benzoic acid], a half-maximal effect (EC50) was put at 4.01 µM and the Maximum % activity was found to be 29.0%.
For `COc1ccc2c(c1)O[C@@H](c1ccc(C(=O)O)cc1)C[C@H]2NC(=O)C1(c2ccc(C)c(OC)c2)CC1` [Example 86, 4-[(2R,4R)-7-methoxy-4-{[1-(3-methoxy-4-methylphenyl)cyclopropane-1-carbonyl]amino}-3,4-dihydro-2H-1-benzopyran-2-yl]benzoic acid], in that order: 0.57 µM and 57.9%.
For `COc1ccc2c(c1)O[C@@H](c1cccc(C(=O)O)c1)C[C@H]2NC(=O)C(C)(C)c1ccc2c(c1)OCCO2` [Example 39, 3-{(2R,4R)-4-[2-(2,3-dihydro-1,4-benzodioxin-6-yl)-2-methylpropanamido]-7-methoxy-3,4-dihydro-2H-1-benzopyran-2-yl}benzoic acid], the half-maximal effective concentration (EC50) was 0.87 µM and the Maximum % activity is listed as 41.7%.
For `COc1ccc2c(c1)O[C@@H](c1ccc(C(=O)O)cc1)C[C@H]2NC(=O)C1(c2ccccc2Br)CCC1` [Example 94, 4-[(2R,4R)-4-{[1-(2-bromophenyl)cyclobutane-1-carbonyl]amino}-7-methoxy-3,4-dihydro-2H-1-benzopyran-2-yl]benzoic acid], in that order: 2.63 µM and 49.0%.
`COc1ccc2c(c1)O[C@@H](c1ccc(C(=O)O)cc1)C[C@H]2NC(=O)C(C)(C)Oc1ccc(C#N)cc1` [Example 107, 4-{(2R,4R)-4-[2-(4-cyanophenoxy)-2-methylpropanamido]-7-methoxy-3,4-dihydro-2H-1-benzopyran-2-yl}benzoic acid]: a half-maximal response (EC50) required 1.32 µM and the Maximum % activity was 22.4%.
For `COc1ccc2c(c1)O[C@@H](c1cccc(C(=O)O)c1)C[C@H]2NC(=O)C1(C)CCc2ccc(OC(F)(F)F)cc21` (stereo partly drawn) [Example 58, 3-[(2R,4R)-7-methoxy-4-{[1-methyl-6-(trifluoromethoxy)-2,3-dihydro-1H-indene-1-carbonyl]amino}-3,4-dihydro-2H-1-benzopyran-2-yl]benzoic acid], in that order: 2.22 µM and 20.4%.
In the case of `C[C@@]1(C(=O)N[C@@H]2C[C@H](c3cccc(C(=O)O)c3)Oc3ccccc32)CCc2ccc(Cl)cc21` [Example 53, 3-[(2R,4R)-4-{[(1R)-6-chloro-1-methyl-2,3-dihydro-1H-indene-1-carbonyl]amino}-3,4-dihydro-2H-1-benzopyran-2-yl]benzoic acid], the EC50 is above 20 µM and the Maximum % activity turned out to be 1.2%.
Consider `COc1ccc2c(c1)[C@](C)(C(=O)N[C@@H]1C[C@H](c3cccc(C(=O)O)c3)Oc3ccccc31)CC2` [Example 48, 3-[(2R,4R)-4-{[(1R)-6-methoxy-1-methyl-2,3-dihydro-1H-indene-1-carbonyl]amino}-3,4-dihydro-2H-1-benzopyran-2-yl]benzoic acid], for which the EC50 is above 20 µM and the Maximum % activity was found to be 4.5%.
On to `COc1ccc2c(c1)O[C@@H](c1ccc(C(=O)O)cc1)C[C@H]2NC(=O)C1(c2cccc(OC(F)(F)F)c2)CCC1` [Example 83, 4-[(2R,4R)-7-methoxy-4-({1-[3-(trifluoromethoxy)phenyl]cyclobutane-1-carbonyl}amino)-3,4-dihydro-2H-1-benzopyran-2-yl]benzoic acid], for which the midpoint of the response, the EC50, lay at 3.17 µM and the Maximum % activity was determined as 51.0%.
For the molecule `C[C@@]1(C(=O)N[C@@H]2C[C@H](c3ccc(C(=O)O)cc3)Oc3ccccc32)CCc2cc(Cl)ccc2O1` [Example 62, 4-[(2R,4R)-4-{[(2S)-6-chloro-2-methyl-3,4-dihydro-2H-1-benzopyran-2-carbonyl]amino}-3,4-dihydro-2H-1-benzopyran-2-yl]benzoic acid], it took 2.65 µM to reach a half-maximal effect (EC50) and the Maximum % activity is reported as 22.6%.
For `COc1cccc2c1[C@@](C)(C(=O)N[C@@H]1C[C@H](c3cccc(C(=O)O)c3)Oc3ccccc31)CC2` [Example 46, 3-[(2R,4R)-4-{[(1S)-7-methoxy-1-methyl-2,3-dihydro-1H-indene-1-carbonyl]amino}-3,4-dihydro-2H-1-benzopyran-2-yl]benzoic acid], in that order: above 20 µM and 1.1%.
For `COc1ccc(C(C)(C)C(=O)N[C@H]2C[C@H](c3cccc(C(=O)O)c3)Oc3cc(OC)ccc32)cc1` [Example 24, 3-{(2R,4S)-7-methoxy-4-[2-(4-methoxyphenyl)-2-methylpropanamido]-3,4-dihydro-2H-1-benzopyran-2-yl}benzoic acid], in that order: 1.16 µM and 38.3%.
For `COc1ccc(C(C)(C)C(=O)N[C@@H]2C[C@H](c3ccc(C(=O)O)cc3)Oc3cc(OC)ccc32)cc1` [Example 121, 4-{(2R,4R)-7-methoxy-4-[2-(4-methoxyphenyl)-2-methylpropanamido]-3,4-dihydro-2H-1-benzopyran-2-yl}benzoic acid], the midpoint of the response, the EC50, lay at 0.07 µM and the Maximum % activity amounted to 49.6%.
For `COC(=O)[C@H]1CC[C@H]([C@H]2C[C@@H](NC(=O)C3(c4ccc5c(c4)OC(F)(F)O5)CC3)c3ccc(OC(F)F)cc3O2)CC1` (single isomer, unassigned) [Example 14E], the half-maximal effective concentration (EC50) stood at 0.2 µM and the Maximum % activity is listed as 125.0%.
In the case of `COc1ccc(C2(C(=O)N[C@@H]3C[C@H](c4ccc(C(=O)O)cc4)Oc4cc(OC)ccc43)CC2)cc1` [Example 74, 4-[(2R,4R)-7-methoxy-4-{[1-(4-methoxyphenyl)cyclopropane-1-carbonyl]amino}-3,4-dihydro-2H-1-benzopyran-2-yl]benzoic acid], the midpoint of the response, the EC50, lay at 0.07 µM and the Maximum % activity is reported as 49.8%.
As for `COc1ccc2c(c1)O[C@@H](c1ccc(C(=O)O)cc1)C[C@H]2NC(=O)C1(c2ccc(Cl)cc2)CCC1` [Example 76, 4-[(2R,4R)-4-{[1-(4-chlorophenyl)cyclobutane-1-carbonyl]amino}-7-methoxy-3,4-dihydro-2H-1-benzopyran-2-yl]benzoic acid], the EC50 is 2.1 µM and the Maximum % activity worked out at 52.0%.
For `COc1ccc2c(c1)O[C@@H](c1cccc(C(=O)O)c1)C[C@H]2NC(=O)C1(c2ccc(Cl)cc2)CC1` [Example 42, 3-[(2R,4R)-4-{[1-(4-chlorophenyl)cyclopropane-1-carbonyl]amino}-7-methoxy-3,4-dihydro-2H-1-benzopyran-2-yl]benzoic acid], in that order: 0.28 µM and 28.3%.
Regarding `CCOC(=O)[C@H]1CC[C@H]([C@H]2C[C@@H](NC(=O)C3(c4ccc5c(c4)OC(F)(F)O5)CC3)c3ccc(OC)cc3O2)CC1` [Example 10, ethyl trans-4-[(2R,4R)-4-{[1-(2,2-difluoro-2H-1,3-benzodioxol-5-yl)cyclopropane-1-carbonyl]amino}-7-methoxy-3,4-dihydro-2H-1-benzopyran-2-yl]cyclohexane-1-carboxylate], the midpoint of the response, the EC50, lay at 0.29 µM and the Maximum % activity worked out at 119.0%.
For `COc1ccc2c(c1)O[C@@H](c1ccc(C(=O)O)cc1)C[C@H]2NC(=O)C1(c2ccc(Cl)c(Cl)c2)CC1` [Example 2, 4-[(2R,4R)-4-{[1-(3,4-dichlorophenyl)cyclopropane-1-carbonyl]amino}-7-methoxy-3,4-dihydro-2H-1-benzopyran-2-yl]benzoic acid], in that order: 0.15 µM and 95.0%.
Regarding `COc1ccc2c(c1)O[C@@H](c1cccc(C(=O)O)c1)C[C@H]2NC(=O)C1(c2ccc(OC(F)(F)F)cc2)CC1` [Example 41, 3-[(2R,4R)-7-methoxy-4-({1-[4-(trifluoromethoxy)phenyl]cyclopropane-1-carbonyl}amino)-3,4-dihydro-2H-1-benzopyran-2-yl]benzoic acid], it took 1.67 µM to reach a half-maximal effect (EC50) and the Maximum % activity stood at 62.2%.
For `COC(=O)c1ccc([C@H]2C[C@@H](NC(=O)[C@]3(C)CCc4cc(Cl)ccc4O3)c3ccccc3O2)cc1` [Example 61, methyl 4-[(2R,4R)-4-{[(2S)-6-chloro-2-methyl-3,4-dihydro-2H-1-benzopyran-2-carbonyl]amino}-3,4-dihydro-2H-1-benzopyran-2-yl]benzoate], in that order: 5.88 µM and 20.0%.
For “3-[(2R,4R)-4-{[(2R)-6-chloro-2-methyl-3,4-dihydro-2H-1-benzopyran-2-carbonyl]amino}-7-methoxy-3,4-dihydro-2H-1-benzopyran-2-yl]benzoic acid [Example 65]”, in that order: 2.14 µM and 27.0%.
For `C[C@@]1(C(=O)N[C@@H]2C[C@H](c3cccc(C(=O)O)c3)Oc3ccccc32)CCc2cc(Cl)ccc2O1` [Example 64, 3-[(2R,4R)-4-{[(2S)-6-chloro-2-methyl-3,4-dihydro-2H-1-benzopyran-2-carbonyl]amino}-3,4-dihydro-2H-1-benzopyran-2-yl]benzoic acid], in that order: above 20 µM and 18.0%.

These data come from US10118916B2, “Modulators of cystic fibrosis transmembrane conductance regulator protein” (AbbVie S.à.r.l., priority 2016, dated 2018).
